{
  "source": "patent US20220362153A1",
  "about": "“COMPOSITIONS AND METHODS FOR PULMONARY SURFACTANT-BIOMIMETIC NANOPARTICLES” (priority 2019, published 2022)",
  "test_system": "rgVN04 H5N1 virus",
  "design": "species or system mice",
  "details": "mouse, in vivo",
  "data": [
    {"substance": "cholera toxin [CT]", "values": [
      {"measurement": "early protection by VN04 H5N1 vaccine combined with adjuvant", "value": "did not provide any early protection"}
    ]}
  ]
}
